How the values were obtained:
Assay type in all cases: in vitro ADME
SULT = SULT activity in rat liver subcellular fraction; details: 100 µM sesquiterpene, control 8.74 ± 0.52
Method: (§1) Enzyme activities were assayed in human and rat liver cytosolic and microsomal fractions. The enzyme assays (each performed in 4–8 replicates) were repeated three times (HPLC measurement of CYP activities was repeated only twice, Table 3). Inhibition studies were carried out by incubation of specific substrates in the presence of sesquiterpenes (in the range 0–100 µM).
(§2) The assays of all other enzymes were based on spectrophotometric detection of product formed or detection of decreasing substrate/cofactor levels using microplate reader Tecan Infinite M200 in cytosolic or microsomal fractions. Enzyme activities were determined using slight modifications of previously-published methods: carbonyl reducing enzymes (AKR1A, AKR1C, CBR1 [45], NQO1 [46]), UDP-glucuronosyltransferase (UGT [47]), sulfotransferase (SULT [48]), and cytosolic glutathione-S-transferase (GST [49]).
(§3) Sesquiterpenes CNER, TNER and FAR, non-volatile liquids, were pipetted, and proper concentration was calculated according to density. All compounds were dissolved in DMSO. The final solvent concentration in the inhibition assays was 1%, which had no effect on the enzyme activity (data not shown). Non-enzymatic interference of sesquiterpenes with some compounds in the reaction mixtures (e.g., fluorescence enhancing or quenching) was considered and excluded. All experiments were performed in three replicates, if not stated otherwise.
(§4) CNER, TNER and FAR at a fixed concentration of 100 µM were screened for inhibition of cytosolic AKR1A1, AKR1C, CBR1, NQO1, SULT, and GST, and microsomal CYPs and UGT. The degree of inhibition caused by sesquiterpenes was compared with non-inhibited control reactions, which contained solvent without sesquiterpenes.

CYP1A2 = molecular target: T1, CYP1A2 (Homo sapiens, UniProt P05177); assay: CYP1A2 (EROD activity, 7-ethoxyresorufin O-deethylation) in human liver microsomes; details: for Specific Activity, CYP1A2 (EROD activity): in the presence of 100 µM sesquiterpene, control 1.88 ± 0.19; for inhibition at 5 µM: liver microsomes, probe 7-ethoxyresorufin, human, 5 µM inhibitor
T1 construct: Frozen liver (both rat and human) was thawed; from tissue; host or cells: human liver microsomal fraction
T1 sequence (P05177 1-516): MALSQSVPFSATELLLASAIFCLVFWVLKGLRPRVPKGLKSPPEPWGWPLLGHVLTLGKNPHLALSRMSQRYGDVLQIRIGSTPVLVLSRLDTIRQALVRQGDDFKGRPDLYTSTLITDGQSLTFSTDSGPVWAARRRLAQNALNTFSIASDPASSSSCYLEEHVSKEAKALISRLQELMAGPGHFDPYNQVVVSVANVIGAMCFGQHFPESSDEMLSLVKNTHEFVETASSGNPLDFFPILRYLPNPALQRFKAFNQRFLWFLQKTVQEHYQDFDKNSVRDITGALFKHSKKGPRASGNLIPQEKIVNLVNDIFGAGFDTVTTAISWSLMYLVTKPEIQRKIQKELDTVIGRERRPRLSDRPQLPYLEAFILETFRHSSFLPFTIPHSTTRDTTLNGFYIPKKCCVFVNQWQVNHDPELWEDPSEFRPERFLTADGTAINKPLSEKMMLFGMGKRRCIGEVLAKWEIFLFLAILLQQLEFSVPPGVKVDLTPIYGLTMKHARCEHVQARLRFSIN
Method: as §1
Enzyme activities of individual CYP forms were measured according to established protocols. The following microsomal CYP activities were tested: CYP2A6, coumarin 7-hydroxylation; CYP2B6, 7-ethoxy-4-(trifluoromethyl)coumarin 7-deethylation, CYP2C9, diclofenac 4′-hydroxylation, CYP2C19 assay, S-mephenytoin 4′-hydroxylation, CYP2D6 on bufuralol 1′-hydroxylation, CYP2E1, chlorzoxazone 6-hydroxylation and CYP3A4, testosterone 6β-hydroxylation, and midazolam 1′-hydroxylation. Activities were measured using the Prominence HPLC system (Shimadzu, Kyoto, Japan), equipped with a LiChroCART 250-4 LiChrospher 100 RP-18 column or Chromolith®HighResolution RP-18 end-capped column (Merck, Darmstadt, Germany) and UV or fluorescence detection, according to the cited literature. Further incubation details are described either in the corresponding references, as well as in the papers from this laboratory e.g., [42, 43, 44]. CYP1A2, 7-ethoxyresorufin O-deethylation, and CYP3A4/2B6 (human), CYP2B1 (rat), benzyloxyresorufin O-debenzylation were measured using the microplate reader Tecan Infinite M200 (Tecan Group; Mannedorf, Switzerland).
Sesquiterpenes CNER, TNER and FAR, non-volatile liquids, were pipetted, and proper concentration was calculated according to density. All compounds were dissolved in DMSO. […] All experiments were performed in three replicates, if not stated otherwise.
as §4
The concentration of sesquiterpenes required for 50% inhibition of enzyme activity, the IC50 value, was determined. […] The IC50 values for each sesquiterpene were determined by plotting sigmoidal dose response curves of specific enzyme activity vs. logarithm of sesquiterpene concentration using GraphPad Prism version 6.07 for Windows (GraphPad Software Inc., La Jolla, CA, USA).
The kinetic inactivation study of the CYP1A2 (EROD activity) and CYP2B/3A (BROD activity), both in rat and human, with TNER, was performed to find out the mechanism of enzyme inhibition by this sesquiterpene. Mechanism of EROD and BROD inhibition was tested at the final ethoxyresorufin or benzyloxyresorufin concentrations 0.5–5.0 µM. The concentration of TNER was 5.0 µM.
Experimental data were fitted to the Michaelis-Menten equation, basic kinetic parameters were determined using the program GraphPad Prism version 6.07 for Windows. The type of inhibition was estimated using a Lineweaver-Burk (double-reciprocal) plot.

GST = GST activity in rat liver subcellular fraction; details: 100 µM sesquiterpene, control 350 ± 8
Method: as §1, §2, §3, §4

AKR1A = molecular target: T2, AKR1A (Homo sapiens, UniProt P14550); assay: AKR1A activity in human liver subcellular fraction; details: 100 µM sesquiterpene, control 8.45 ± 0.90
T2 construct: Frozen liver (both rat and human) was thawed; from tissue; host or cells: human liver cytosolic fraction
T2 sequence (P14550 1-325): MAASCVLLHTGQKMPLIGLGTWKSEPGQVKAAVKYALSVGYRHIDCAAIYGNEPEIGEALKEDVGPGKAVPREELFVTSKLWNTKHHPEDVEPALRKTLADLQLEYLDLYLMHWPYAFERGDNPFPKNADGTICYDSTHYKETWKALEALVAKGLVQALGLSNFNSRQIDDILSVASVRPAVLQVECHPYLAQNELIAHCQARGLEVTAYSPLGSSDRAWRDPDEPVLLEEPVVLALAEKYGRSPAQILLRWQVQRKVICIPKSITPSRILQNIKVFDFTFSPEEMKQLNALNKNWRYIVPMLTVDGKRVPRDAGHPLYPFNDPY
Method: as §1, §2, §3, §4

Compound | Specific activity, SULT (SULT) [nmol/mg/min] | IC50 (CYP1A2; human liver microsomes) [nM] | Specific Activity, CYP1A2 (EROD activity) (CYP1A2; human liver microsomes) [pmol/mg/min] | inhibition at 5 µM (CYP1A2) [%] | Specific activity, GST (GST) [nmol/mg/min] | Specific activity, AKR1A (AKR1A) [nmol/mg/min] | Ki (CYP1A2; human liver microsomes, EROD activity) [nM] | type of inhibition, CYP1A2 (EROD) (CYP1A2; human microsomes, 5 µM TNER, ethoxyresorufin 0.5–5.0 µM)
C=CC(C)(O)CC/C=C(/C)CCC=C(C)C (stereo not drawn) [CNER, cis-nerolidol] | 8.74 ± 0.26 | 2490 | 0.163 ± 0.005 | 50 | 334 ± 22 | 6.88 ± 0.29 |  | 
C=CC(C)(O)CC/C=C(\C)CCC=C(C)C (stereo not drawn) [TNER, trans-nerolidol] | 8.48 ± 0.28 | 8690 | 0.287 ± 0.013 | 38 | 354 ± 37 | 6.75 ± 0.22 | 920 ± 520 | competitively
CC(C)=CCC/C(C)=C/CC/C(C)=C/CO [FAR, farnesol] | 8.55 ± 0.30 | 1830 | 0.083 ± 0.005 | 77 | 345 ± 20 | 7.62 ± 0.30 |  | 

— publication PMC6154719 (Molecules : A Journal of Synthetic Chemistry and Natural …, 2017)
